Reference: PubChem BioAssay (NCI)
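Cultured in 96-well plates, cells were exposed to test compound for 48 hours across five concentrations. TGI denotes the concentration required for complete inhibition of growth.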

Each molecule was assayed on 786-0 renal (assay: NCI tumour cell line growth inhibition, 48 h).

| SMILES | TGI |
| --- | --- |
| CCN(CC)CCC(=O)Nc1ccc2c(c1)C(=O)c1ccc(NC(=O)CCN(CC)CC)cc1C2=O | 8.42 µM |
| COc1cc2c(cc1OC)-c1c3cc(O)ccc3nn[n+]1CC2 | > 100 µM |
| CCCCCCCCCCCCCCCCCC(CCCCCCCCCCCCCCCCC)OP(=O)(O)O | > 100 µM |
| O=C(COc1ccc(Br)cc1Br)N1N=C(c2ccc([N+](=O)[O-])o2)CC1(O)c1ccccc1 (centres undefined) | 44.1 µM |
| CNS(=O)(=O)NNS(=O)(=O)c1ccc2ccccc2c1 | > 100 µM |
| CCOC(=O)CN1C(=O)c2cccc3cc([N+](=O)[O-])cc(c23)C1=O | 26.3 µM |
| CC(N)Cc1ccc(C(=O)Cl)cc1 (centres undefined) | > 100 µM |

What follows are molecules tested on A498 renal (assay: NCI tumour cell line growth inhibition, 48 h).

| SMILES | TGI |
| --- | --- |
| CCN(CC)CCC(=O)Nc1ccc2c(c1)C(=O)c1ccc(NC(=O)CCN(CC)CC)cc1C2=O | 17.8 µM |
| CCCCCCCCCCCCCCCCCC(CCCCCCCCCCCCCCCCC)OP(=O)(O)O | > 100 µM |
| O=C(COc1ccc(Br)cc1Br)N1N=C(c2ccc([N+](=O)[O-])o2)CC1(O)c1ccccc1 (centres undefined) | 23.8 µM |
| CNS(=O)(=O)NNS(=O)(=O)c1ccc2ccccc2c1 | > 100 µM |
| CCOC(=O)CN1C(=O)c2cccc3cc([N+](=O)[O-])cc(c23)C1=O | 30.6 µM |
| CC(N)Cc1ccc(C(=O)Cl)cc1 (centres undefined) | > 100 µM |

The molecules below were run on A549 NSCLC (assay: NCI tumour cell line growth inhibition, 48 h).

| SMILES | TGI |
| --- | --- |
| CCN(CC)CCC(=O)Nc1ccc2c(c1)C(=O)c1ccc(NC(=O)CCN(CC)CC)cc1C2=O | 20.6 µM |
| COc1cc2c(cc1OC)-c1c3cc(O)ccc3nn[n+]1CC2 | > 100 µM |
| CCCCCCCCCCCCCCCCCC(CCCCCCCCCCCCCCCCC)OP(=O)(O)O | > 100 µM |
| O=C(COc1ccc(Br)cc1Br)N1N=C(c2ccc([N+](=O)[O-])o2)CC1(O)c1ccccc1 (centres undefined) | 72.2 µM |
| CNS(=O)(=O)NNS(=O)(=O)c1ccc2ccccc2c1 | > 100 µM |
| CCOC(=O)CN1C(=O)c2cccc3cc([N+](=O)[O-])cc(c23)C1=O | 26.6 µM |
| CC(N)Cc1ccc(C(=O)Cl)cc1 (centres undefined) | > 100 µM |

Each molecule was assayed on ACHN renal (assay: NCI tumour cell line growth inhibition, 48 h).

| SMILES | TGI |
| --- | --- |
| CCN(CC)CCC(=O)Nc1ccc2c(c1)C(=O)c1ccc(NC(=O)CCN(CC)CC)cc1C2=O | 16.3 µM |
| CCCCCCCCCCCCCCCCCC(CCCCCCCCCCCCCCCCC)OP(=O)(O)O | > 100 µM |
| O=C(COc1ccc(Br)cc1Br)N1N=C(c2ccc([N+](=O)[O-])o2)CC1(O)c1ccccc1 (centres undefined) | > 100 µM |
| CNS(=O)(=O)NNS(=O)(=O)c1ccc2ccccc2c1 | > 100 µM |
| CCOC(=O)CN1C(=O)c2cccc3cc([N+](=O)[O-])cc(c23)C1=O | 21.7 µM |
| CC(N)Cc1ccc(C(=O)Cl)cc1 (centres undefined) | > 100 µM |

These molecules were tested on CAKI-1 renal (assay: NCI tumour cell line growth inhibition, 48 h).

| SMILES | TGI |
| --- | --- |
| CCN(CC)CCC(=O)Nc1ccc2c(c1)C(=O)c1ccc(NC(=O)CCN(CC)CC)cc1C2=O | 14.7 µM |
| COc1ccc(C(=O)C(C(=O)CCC(=O)Nc2ccc(C)c(C)c2)c2ccc(OC)cc2)cc1 (centres undefined) | > 100 µM |
| CCCCCCCCCCCCCCCCCC(CCCCCCCCCCCCCCCCC)OP(=O)(O)O | > 100 µM |
| O=C(COc1ccc(Br)cc1Br)N1N=C(c2ccc([N+](=O)[O-])o2)CC1(O)c1ccccc1 (centres undefined) | 65.3 µM |
| CNS(=O)(=O)NNS(=O)(=O)c1ccc2ccccc2c1 | > 100 µM |
| CC(N)Cc1ccc(C(=O)Cl)cc1 (centres undefined) | > 100 µM |

Each molecule was assayed on CCRF-CEM leukemia (assay: NCI tumour cell line growth inhibition, 48 h).

| SMILES | TGI |
| --- | --- |
| CCN(CC)CCC(=O)Nc1ccc2c(c1)C(=O)c1ccc(NC(=O)CCN(CC)CC)cc1C2=O | 18.5 µM |
| COc1cc2c(cc1OC)-c1c3cc(O)ccc3nn[n+]1CC2 | > 100 µM |
| CCCCCCCCCCCCCCCCCC(CCCCCCCCCCCCCCCCC)OP(=O)(O)O | > 100 µM |
| O=C(COc1ccc(Br)cc1Br)N1N=C(c2ccc([N+](=O)[O-])o2)CC1(O)c1ccccc1 (centres undefined) | 14.8 µM |
| CNS(=O)(=O)NNS(=O)(=O)c1ccc2ccccc2c1 | > 100 µM |
| CCOC(=O)CN1C(=O)c2cccc3cc([N+](=O)[O-])cc(c23)C1=O | 1.5 µM |
| CC(N)Cc1ccc(C(=O)Cl)cc1 (centres undefined) | > 100 µM |

These molecules were tested on COLO 205 colon (assay: NCI tumour cell line growth inhibition, 48 h).

| SMILES | TGI |
| --- | --- |
| CCN(CC)CCC(=O)Nc1ccc2c(c1)C(=O)c1ccc(NC(=O)CCN(CC)CC)cc1C2=O | 14.4 µM |
| COc1ccc(C(=O)C(C(=O)CCC(=O)Nc2ccc(C)c(C)c2)c2ccc(OC)cc2)cc1 (centres undefined) | > 100 µM |
| COc1cc2c(cc1OC)-c1c3cc(O)ccc3nn[n+]1CC2 | > 100 µM |
| CCCCCCCCCCCCCCCCCC(CCCCCCCCCCCCCCCCC)OP(=O)(O)O | > 100 µM |
| O=C(COc1ccc(Br)cc1Br)N1N=C(c2ccc([N+](=O)[O-])o2)CC1(O)c1ccccc1 (centres undefined) | 7.05 µM |
| CNS(=O)(=O)NNS(=O)(=O)c1ccc2ccccc2c1 | > 100 µM |
| CC(N)Cc1ccc(C(=O)Cl)cc1 (centres undefined) | > 100 µM |

These molecules were tested on DLD-1 colon (assay: NCI tumour cell line growth inhibition, 48 h).

| SMILES | TGI |
| --- | --- |
| CCN(CC)CCC(=O)Nc1ccc2c(c1)C(=O)c1ccc(NC(=O)CCN(CC)CC)cc1C2=O | 10.2 µM |
| COc1cc2c(cc1OC)-c1c3cc(O)ccc3nn[n+]1CC2 | > 100 µM |
| O=C(COc1ccc(Br)cc1Br)N1N=C(c2ccc([N+](=O)[O-])o2)CC1(O)c1ccccc1 (centres undefined) | 30.2 µM |
